Assay results taken from PMC12400508 (RSC Advances, 2025).
Values after ≈ are worked out from the molar mass of the structure shown. Read-outs that look alike come from different tables or passages of the source.

What was measured:
[1] = system: Mtb mc^26230; experiment: microbe, parasite or virus in culture; format: cell-based, Mycobacterium tuberculosis; conditions: for MIC: Mycobacterium tuberculosis; for MIC (MIC99): Mtb mc^26230, 6 days, Table 1 and text
[2] = system: THP-1 cells; experiment: Cytotoxicity assay in THP-1 cells; format: cell-based, Human; conditions: for IC50: Homo sapiens, THP-1, 72 h, read-out: IC50 (reduces the viability of THP-1 cells by 50%); for SI, selectivity index (IC50/MIC): THP-1 IC50 / Mtb MIC
[3] = system: mc^26230 pMV261; experiment: microbe, parasite or virus in culture; format: cell-based; conditions: Mycobacterium tuberculosis, read-out: MIC, pMV261
[4] = read-out: MIC, mc^26230 (parental strain)

| SMILES | MIC [1] [µg/mL] | MIC ([1]; read-out: MIC, Wild-type) [µg/mL] | MIC [1, 4] [µg/mL] | IC50 [2] [µg/mL] | SI, selectivity index (IC50/MIC) [2] | MIC [3] [µg/mL] | MIC (MIC99) [1] [µg/mL] |
| --- | --- | --- | --- | --- | --- | --- | --- |
| Cc1ccccc1/C=C1\SC(NNC(=O)c2ccncc2)=NC1=O [9d] | 1.56 (≈ 4.61 µM) | 1.56 (≈ 4.61 µM) | 1.56 (≈ 4.61 µM) | 21 (≈ 62.1 µM) | 14 | 3.12 (≈ 9.22 µM) |  |
| O=C1N=C(NNC(=O)c2ccncc2)S/C1=C\c1ccc(F)cc1 [9j] | 12.5 (≈ 36.5 µM) | 12.5 (≈ 36.5 µM) | 12.5 (≈ 36.5 µM) | 18 (≈ 52.6 µM) | 1.4 | 12.5 (≈ 36.5 µM) | 12.5 (≈ 36.5 µM) |
| O=C1N=C(NNC(=O)c2ccncc2)S/C1=C\c1ccccc1F [9l] |  |  | 25 (≈ 73 µM) |  |  |  |  |
| O=C1N=C(NNC(=O)c2ccncc2)S/C1=C\c1ccc(Cl)cc1 [9n] | 12.5 (≈ 34.8 µM) | 12.5 (≈ 34.8 µM) | 12.5 (≈ 34.8 µM) |  |  | 25 (≈ 69.7 µM) | 12.5 (≈ 34.8 µM) |
| O=C1N=C(NNC(=O)c2ccncc2)S/C1=C\c1ccccc1Cl [9p] |  |  | 25 (≈ 69.7 µM) |  |  |  |  |
| NNC(=O)c1ccncc1 [INH, isoniazid, reference compound] | 0.039 (≈ 0.284 µM) | 0.078 (≈ 0.569 µM) | 0.039 (≈ 0.284 µM) | > 100 | >100 | 0.078 (≈ 0.569 µM) |  |
| CO[C@H]1/C=C/O[C@@]2(C)Oc3c(C)c(O)c4c(O)c(c(/C=N/N5CCN(C)CC5)c(O)c4c3C2=O)NC(=O)/C(C)=C\C=C\[C@H](C)[C@H](O)[C@@H](C)[C@@H](O)[C@@H](C)[C@H](OC(C)=O)[C@@H]1C [RIF, reference compound] |  | 0.039 (≈ 0.0474 µM) |  |  |  | 0.039 (≈ 0.0474 µM) |  |
